Reference: PubChem BioAssay (NCI)
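Compound exposure: 48 hours, 5 concentrations, 96-well plates. TGI is the concentration that stops growth completely.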

How the values were obtained:
Test in all cases: inhibition of tumour cell growth, NCI panel, 48 h
OVCAR-5 ovarian = test system: OVCAR-5 ovarian
COLO 205 colon = test system: COLO 205 colon
SF-268 CNS = test system: SF-268 CNS
IGROV1 ovarian = test system: IGROV1 ovarian
T-47D breast = test system: T-47D breast
SK-OV-3 ovarian = test system: SK-OV-3 ovarian
CAKI-1 renal = test system: CAKI-1 renal
SF-295 CNS = test system: SF-295 CNS
UACC-257 melanoma = test system: UACC-257 melanoma
NCI-H23 lung = test system: NCI-H23 lung

## COc1ccc(N2C(N)=C(C#N)C(C#N)(C#N)C2c2cccc([N+](=O)[O-])c2)cc1 (stereo not given)
OVCAR-5 ovarian
  TGI: 34.5 µM
COLO 205 colon
  TGI: 24 µM
SF-268 CNS
  TGI: 44 µM
IGROV1 ovarian
  TGI: 29.7 µM
T-47D breast
  TGI: 28 µM
SK-OV-3 ovarian
  TGI: 38.9 µM
CAKI-1 renal
  TGI: 23.4 µM
SF-295 CNS
  TGI: 39.5 µM
UACC-257 melanoma
  TGI: 27.6 µM
NCI-H23 lung
  TGI: 30.8 µM

## C=CC[C@@H]1C=C[C@@H](C(=O)OC)n2c(=O)n(-c3ccccc3)c(=O)n21
OVCAR-5 ovarian
  TGI: > 100 µM
COLO 205 colon
  TGI: > 100 µM
SF-268 CNS
  TGI: > 100 µM
IGROV1 ovarian
  TGI: > 100 µM
T-47D breast
  TGI: > 100 µM
SK-OV-3 ovarian
  TGI: > 100 µM
CAKI-1 renal
  TGI: > 100 µM
SF-295 CNS
  TGI: > 100 µM
UACC-257 melanoma
  TGI: > 100 µM
NCI-H23 lung
  TGI: > 100 µM

## COc1ccc(-c2nnc(-c3ccncc3)o2)cc1
OVCAR-5 ovarian
  TGI: > 100 µM
COLO 205 colon
  TGI: > 100 µM
SF-268 CNS
  TGI: > 100 µM
IGROV1 ovarian
  TGI: > 100 µM
T-47D breast
  TGI: > 100 µM
SK-OV-3 ovarian
  TGI: > 100 µM
CAKI-1 renal
  TGI: > 100 µM
SF-295 CNS
  TGI: > 100 µM
UACC-257 melanoma
  TGI: > 100 µM
NCI-H23 lung
  TGI: > 100 µM

## O=C(O)CN(CC(=O)O)Cc1ccn(-c2cccc(-n3ccc(CN(CC(=O)O)CC(=O)O)n3)n2)n1
OVCAR-5 ovarian
  TGI: > 100 µM
COLO 205 colon
  TGI: > 100 µM
SF-268 CNS
  TGI: > 100 µM
IGROV1 ovarian
  TGI: > 100 µM
T-47D breast
  TGI: > 100 µM
SK-OV-3 ovarian
  TGI: > 100 µM
CAKI-1 renal
  TGI: > 100 µM
SF-295 CNS
  TGI: > 100 µM
UACC-257 melanoma
  TGI: > 100 µM
NCI-H23 lung
  TGI: > 100 µM

## CCNc1cc2c3c(c1)CCCN3CCC2
OVCAR-5 ovarian
  TGI: 45.1 µM
COLO 205 colon
  TGI: 24.5 µM
SF-268 CNS
  TGI: 33.3 µM
IGROV1 ovarian
  TGI: 31.5 µM
T-47D breast
  TGI: 67.9 µM
SK-OV-3 ovarian
  TGI: 37.3 µM
CAKI-1 renal
  TGI: > 100 µM
SF-295 CNS
  TGI: 32.3 µM
UACC-257 melanoma
  TGI: 49.5 µM
NCI-H23 lung
  TGI: 21.9 µM

## CCCCC1(N=[N+]=[N-])C(=O)C2C=CC=C3c4ccccc4N(C1=O)C32 (stereo not given)
OVCAR-5 ovarian
  TGI: > 31.6 µM
COLO 205 colon
  TGI: > 31.6 µM
SF-268 CNS
  TGI: > 31.6 µM
IGROV1 ovarian
  TGI: > 31.6 µM
T-47D breast
  TGI: > 31.6 µM
SK-OV-3 ovarian
  TGI: > 31.6 µM
CAKI-1 renal
  TGI: > 31.6 µM
SF-295 CNS
  TGI: > 31.6 µM
UACC-257 melanoma
  TGI: 30.9 µM
NCI-H23 lung
  TGI: > 31.6 µM

## COC(=O)C(Cc1ccccc1)NC(=O)c1ccc(CNC(=S)NCc2cccc(CNC(=S)NCc3ccccc3)c2)cc1 (stereo not given)
OVCAR-5 ovarian
  TGI: > 62.5 µM
COLO 205 colon
  TGI: > 62.5 µM
SF-268 CNS
  TGI: > 62.5 µM
IGROV1 ovarian
  TGI: > 62.5 µM
T-47D breast
  TGI: > 62.5 µM
SK-OV-3 ovarian
  TGI: > 62.5 µM
CAKI-1 renal
  TGI: > 62.5 µM
SF-295 CNS
  TGI: > 62.5 µM
UACC-257 melanoma
  TGI: > 62.5 µM
NCI-H23 lung
  TGI: > 62.5 µM

## CCCCNC(=S)c1ccc(OC(=O)Nc2ccc(Cl)cc2)cc1
OVCAR-5 ovarian
  TGI: > 100 µM
COLO 205 colon
  TGI: 57.5 µM
SF-268 CNS
  TGI: > 100 µM
IGROV1 ovarian
  TGI: 70.4 µM
T-47D breast
  TGI: > 100 µM
SK-OV-3 ovarian
  TGI: > 100 µM
CAKI-1 renal
  TGI: > 100 µM
SF-295 CNS
  TGI: > 100 µM
UACC-257 melanoma
  TGI: > 100 µM
NCI-H23 lung
  TGI: > 100 µM

## N#CCOc1cccc(C2(N3CC=CCC3)CCCCC2)c1
OVCAR-5 ovarian
  TGI: > 100 µM
COLO 205 colon
  TGI: > 100 µM
SF-268 CNS
  TGI: > 100 µM
IGROV1 ovarian
  TGI: > 100 µM
T-47D breast
  TGI: > 100 µM
SK-OV-3 ovarian
  TGI: > 100 µM
CAKI-1 renal
  TGI: > 100 µM
SF-295 CNS
  TGI: > 100 µM
UACC-257 melanoma
  TGI: > 100 µM
NCI-H23 lung
  TGI: > 100 µM

## CCCC(=O)Nc1cc(/C=C/C(=O)N2CC(CCl)c3c2cc([N+](=O)[O-])c2ccccc32)n(C)c1 (stereo not given)
OVCAR-5 ovarian
  TGI: > 100 µM
COLO 205 colon
  TGI: > 100 µM
SF-268 CNS
  TGI: > 100 µM
IGROV1 ovarian
  TGI: > 100 µM
T-47D breast
  TGI: > 100 µM
SK-OV-3 ovarian
  TGI: > 100 µM
CAKI-1 renal
  TGI: > 100 µM
SF-295 CNS
  TGI: > 100 µM
UACC-257 melanoma
  TGI: > 100 µM
NCI-H23 lung
  TGI: > 100 µM

## COc1ccc2c(c1)CC1(O)COc3cc(OC)ccc3C1O2 (stereo not given)
OVCAR-5 ovarian
  TGI: > 100 µM
COLO 205 colon
  TGI: > 100 µM
SF-268 CNS
  TGI: > 100 µM
IGROV1 ovarian
  TGI: > 100 µM
T-47D breast
  TGI: > 100 µM
SK-OV-3 ovarian
  TGI: > 100 µM
CAKI-1 renal
  TGI: > 100 µM
SF-295 CNS
  TGI: > 100 µM
UACC-257 melanoma
  TGI: > 100 µM
NCI-H23 lung
  TGI: > 100 µM

## Cc1nc2c(Cl)cc(Cl)cc2c(Cl)c1CCCl
OVCAR-5 ovarian
  TGI: > 100 µM
COLO 205 colon
  TGI: > 100 µM
SF-268 CNS
  TGI: > 100 µM
IGROV1 ovarian
  TGI: > 100 µM
T-47D breast
  TGI: 89.7 µM
SK-OV-3 ovarian
  TGI: > 100 µM
CAKI-1 renal
  TGI: > 100 µM
SF-295 CNS
  TGI: > 100 µM
UACC-257 melanoma
  TGI: > 100 µM
NCI-H23 lung
  TGI: > 100 µM

## CC(O)c1cc2c(s1)C(=O)c1scc(C(C)O)c1C2=O (stereo not given)
OVCAR-5 ovarian
  TGI: 3.37 µM
COLO 205 colon
  TGI: 3.66 µM
SF-268 CNS
  TGI: 0.889 µM
IGROV1 ovarian
  TGI: 3.63 µM
T-47D breast
  TGI: 4.53 µM
SK-OV-3 ovarian
  TGI: 7.76 µM
CAKI-1 renal
  TGI: 2.74 µM
SF-295 CNS
  TGI: 0.364 µM
UACC-257 melanoma
  TGI: 0.356 µM
NCI-H23 lung
  TGI: 0.415 µM

## COc1ccc(CCNC(=O)CCCCCO)cc1OC
OVCAR-5 ovarian
  TGI: > 100 µM
COLO 205 colon
  TGI: > 100 µM
SF-268 CNS
  TGI: > 100 µM
IGROV1 ovarian
  TGI: > 100 µM
T-47D breast
  TGI: > 100 µM
SK-OV-3 ovarian
  TGI: > 100 µM
CAKI-1 renal
  TGI: > 100 µM
SF-295 CNS
  TGI: > 100 µM
UACC-257 melanoma
  TGI: > 100 µM
NCI-H23 lung
  TGI: > 100 µM

## CCOC(=O)Cn1nnc2cc(Nc3nc4ccccc4nc3C(=O)OCC)ccc21
OVCAR-5 ovarian
  TGI: > 100 µM
COLO 205 colon
  TGI: > 100 µM
SF-268 CNS
  TGI: > 100 µM
IGROV1 ovarian
  TGI: > 100 µM
T-47D breast
  TGI: > 100 µM
SK-OV-3 ovarian
  TGI: > 100 µM
CAKI-1 renal
  TGI: > 100 µM
SF-295 CNS
  TGI: > 100 µM
UACC-257 melanoma
  TGI: > 100 µM
NCI-H23 lung
  TGI: > 100 µM

## CC(C)=CCCC1(Sc2ccccc2)C(=O)OCC1C=C(C)C (stereo not given)
OVCAR-5 ovarian
  TGI: 59 µM
COLO 205 colon
  TGI: 50 µM
SF-268 CNS
  TGI: > 100 µM
IGROV1 ovarian
  TGI: 60.4 µM
T-47D breast
  TGI: > 100 µM
SK-OV-3 ovarian
  TGI: > 100 µM
CAKI-1 renal
  TGI: > 100 µM
SF-295 CNS
  TGI: > 100 µM
UACC-257 melanoma
  TGI: 83 µM
NCI-H23 lung
  TGI: > 100 µM

## CCCCCC(O)(CCCCC)CCCCCCCCC1=C(O)c2ccccc2C(=O)C1=O
OVCAR-5 ovarian
  TGI: 46.1 µM
COLO 205 colon
  TGI: 42.4 µM
SF-268 CNS
  TGI: 33.7 µM
IGROV1 ovarian
  TGI: 26.4 µM
T-47D breast
  TGI: 75.2 µM
SK-OV-3 ovarian
  TGI: > 64.1 µM
CAKI-1 renal
  TGI: > 56.1 µM
SF-295 CNS
  TGI: 40.5 µM
UACC-257 melanoma
  TGI: > 66.5 µM
NCI-H23 lung
  TGI: 21.9 µM

## CCOC(=O)c1nc2cc(C(F)(F)F)ccc2nc1Nc1ccc(F)cc1
OVCAR-5 ovarian
  TGI: > 100 µM
COLO 205 colon
  TGI: > 100 µM
SF-268 CNS
  TGI: > 100 µM
IGROV1 ovarian
  TGI: > 100 µM
T-47D breast
  TGI: > 100 µM
SK-OV-3 ovarian
  TGI: > 100 µM
CAKI-1 renal
  TGI: > 100 µM
SF-295 CNS
  TGI: > 100 µM
UACC-257 melanoma
  TGI: > 100 µM
NCI-H23 lung
  TGI: > 100 µM

## CC1CC(=O)Nc2ccc(N=NN(C)C)cc2N1C=O (stereo not given)
OVCAR-5 ovarian
  TGI: > 100 µM
COLO 205 colon
  TGI: > 100 µM
SF-268 CNS
  TGI: > 100 µM
IGROV1 ovarian
  TGI: > 100 µM
T-47D breast
  TGI: > 100 µM
SK-OV-3 ovarian
  TGI: > 100 µM
CAKI-1 renal
  TGI: > 100 µM
SF-295 CNS
  TGI: > 100 µM
UACC-257 melanoma
  TGI: > 100 µM
NCI-H23 lung
  TGI: > 100 µM
